Laboratory results from the PolyMetriX glass transition set.
± gives the standard deviation of the reports.

Row | glass transition temperature | Compound
1 | 78.00 °C | *CC(*)c1ccc(C(=O)Cc2ccccc2)cc1 (repeat unit)
2 | 101.00 °C | *CCCOC(=O)c1cc(/N=N/c2ccc(OCC)cc2)ccc1-c1ccc(/N=N/c2ccc(OCC)cc2)cc1C(=O)O* (repeat unit)
3 | 22.00 °C | *CC[CH2][Sn]([CH3])([CH3])[CH2]CCOC(=O)C(CCCCCCCCOc1ccc(-c2ccc(OCc3ccc(C#N)cc3)cc2)cc1)C(=O)O* (repeat unit)
4 | 260.00 °C | *c1ccc(Oc2ccc(C(=O)c3ccc(Oc4ccc(-c5c6c(c(*)c7ccccc57)C(=O)N(c5ccc(C(F)(F)F)cc5)C6=O)cc4)cc3)cc2)cc1 (repeat unit)
5 | 318.00 °C | *C(=O)c1ccc2ncc(-c3ccc(-c4cnc5ccc(*)cc5n4)cc3)nc2c1 (repeat unit)
6 | 199.00 °C | *c1ccc(Sc2ccc(Oc3ccc(Sc4ccc(N5C(=O)c6ccc(Oc7ccc(C(C)(C)c8ccc(Oc9ccc%10c(c9)C(=O)N(*)C%10=O)cc8)cc7)cc6C5=O)cc4)cc3)cc2)cc1 (repeat unit)
7 | 67.00 °C | *c1cccc(S(=O)(=O)NCCCCCCNS(*)(=O)=O)c1 (repeat unit)
8 | -30.00 °C | *C/C=C/C[Si](*)(C)CCCOc1ccccc1 (repeat unit)
9 | 266.00 °C | *c1ccc2c(c1)C(=O)N(c1ccc(C(c3ccc(C)c(N4C(=O)c5ccc(C(*)(C(F)(F)F)C(F)(F)F)cc5C4=O)c3)(C(F)(F)F)C(F)(F)F)cc1C)C2=O (repeat unit)
10 | 115.00 °C | *Oc1ccc(Oc2cccc(*)n2)c(-c2ccccc2)c1 (repeat unit)
11 | -52.00 °C | *O[Si](C)(C)CC(C)(C)COC(=O)c1cccc(C(=O)OCC(C)(C)C[Si](*)(C)C)c1 (repeat unit)
12 | 238.40 °C | *NNC(=O)/C=C/C(=O)Nc1cccc(/C=C2\CCC/C(=C\c3cccc(NC(=O)/C=C/C(*)=O)c3)C2=O)c1 (repeat unit)
13 | 157.00 °C | */C=C/c1ccc(-c2nnc(-c3ccc(/C=C/c4ccc5c(c4)c4cc(-c6ccc7c(c6)c6cc(*)ccc6n7CCCCCCCC)ccc4n5CCCCCCCC)cc3)n2-c2ccccc2)cc1 (repeat unit)
14 | 28.70 °C | */C=C/c1cccc(/C=C/[Si](C)(C)c2cccc([Si](*)(C)C)c2)c1 (repeat unit)
15 | 100.00 °C | *CCN(*)C(=O)c1ccc(SC(F)(F)F)cc1 (repeat unit)
16 | 70.00 °C | *CC(O)CN(CC(O)CN(*)c1ccccc1)c1ccc(/N=N/c2ccc([N+](=O)[O-])cc2)cc1 (repeat unit)
17 | 242.00 °C | *c1ccc(Oc2ccc(C(=O)c3ccc(Oc4ccc(-c5nc6ccccc6n5-c5ccc(-n6c(*)nc7ccccc76)cc5)cc4)cc3)cc2)cc1 (repeat unit)
18 | 61.00 °C | *CC(*)OCCOc1ccc(/N=N/c2ccc(C#N)cc2)cc1 (repeat unit)
19 | 297.00 °C | *OC(=O)c1ccc(C2(C)CC(C)(C)c3ccc(C(=O)Oc4ccc5c(c4)Oc4cc(*)ccc4C5(C)C)cc32)cc1 (repeat unit)
20 | 284.00 °C | *C(=O)Nc1ccc(Oc2ccc(C3(c4ccc(Oc5ccc(NC(=O)c6ccc7c(c6)C(=O)N(c6ccc(Oc8ccc(Oc9ccc(N%10C(=O)c%11ccc(*)cc%11C%10=O)cc9)cc8)cc6)C7=O)cc5)cc4)NC(=O)c4ccccc43)cc2)cc1 (repeat unit)
21 | 342.00 °C | *c1ccc(-c2cc(C(C)(C)C)c(Oc3ccc(N4C(=O)c5ccc(Oc6ccc7c(c6)C(=O)N(*)C7=O)cc5C4=O)cc3)c(C(C)(C)C)c2)cc1 (repeat unit)

Row | Compound | glass transition temperature
22 | *CC1(*)CC(=O)N(c2ccccc2)C1=O (repeat unit) | 236.00 °C
23 | */C(C)=C(/*)[Si](C)(C)CCCCCC (repeat unit) | 200.00 °C
24 | *CC/C=C(/*)Cl (repeat unit) [Polychloroprene ] | -48 ± 18 °C
25 | *[Si](*)(CCCC)CCCCCC (repeat unit) | -40.00 °C
